# Calls of active or inactive are those of the source.
# Assays:
# [1] = cytotoxicity in HEK-293T cells, dose response, cytotoxicity control for TCR NF-kB inhibitor project, luminescence, T-cell screen hits (AID 489026); assay type: functional, cell-based;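 note: cells exposed to compound about 14 hours before the viability readout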
# [2] = HeLa cell cytotoxicity, dose response, cytotoxicity control for MgcRacGAP inhibitor project (AID 624300); assay type: functional
# [3] = biological target: T1, Rac GTPase-activating protein 1 (Homo sapiens, UniProt Q9H0H5); test: MgcRacGAP GTPase-activating activity inhibitors, confirmation, biochemical, ADP Hunter fluorescence, primary and confirmatory (AID 624330); assay type: functional
# T1 sequence (Q9H0H5 whole entry): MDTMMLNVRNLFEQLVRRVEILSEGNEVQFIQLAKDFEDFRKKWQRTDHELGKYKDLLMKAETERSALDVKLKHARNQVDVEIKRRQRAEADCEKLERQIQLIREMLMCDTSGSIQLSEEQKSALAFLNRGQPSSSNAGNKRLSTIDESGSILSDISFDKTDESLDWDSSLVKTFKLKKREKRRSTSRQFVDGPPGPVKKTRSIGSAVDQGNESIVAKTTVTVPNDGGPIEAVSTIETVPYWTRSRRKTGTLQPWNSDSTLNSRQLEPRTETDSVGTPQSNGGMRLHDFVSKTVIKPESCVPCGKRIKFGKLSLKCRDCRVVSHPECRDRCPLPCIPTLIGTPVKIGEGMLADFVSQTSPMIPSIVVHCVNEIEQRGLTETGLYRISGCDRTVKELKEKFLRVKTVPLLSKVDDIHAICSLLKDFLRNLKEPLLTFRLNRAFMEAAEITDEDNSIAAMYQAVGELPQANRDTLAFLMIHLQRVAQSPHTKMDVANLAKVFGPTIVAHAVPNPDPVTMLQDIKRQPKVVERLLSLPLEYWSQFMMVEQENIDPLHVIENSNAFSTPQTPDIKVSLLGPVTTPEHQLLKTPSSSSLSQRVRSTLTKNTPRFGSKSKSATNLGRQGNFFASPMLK
# [4] = Luminescence Cell-Based Dose Confirmation HTS to Identify Activators of 5'UTR Stem-Loop Driven Alpha-Synuclein mRNA Translation in H4 Neuroglioblastoma Cells. [Related pubchem assays: 1829 (Project Summary), 1814 (Primary HTS)]; assay type: functional
# [5] = Luminescence Cell-Based Dose Response HTS to Identify Activators of Luciferase Translation or Activity in H4 […] Cells. [Related pubchem assays: 1829 (Project Summary), 1814 (Primary HTS)]; assay type: functional
# [6] = test system: H4; test: Luminescence Cell-Based Dose Response HTS to Identify Activators of 5'UTR Stem-Loop Driven Prion Protein mRNA Translation in H4 Neuroglioblastoma Cells. [Related pubchem assays: 1829 (Project Summary), 1814 (Primary HTS)]; assay type: functional; settings: Homo sapiens
# [7] = biological target: DNA damage-inducible transcript 3 protein (Mus musculus, UniProt P35639); assay type: functional, Cricetulus griseus
# Chain of DNA damage-inducible transcript 3 protein (P35639 whole entry): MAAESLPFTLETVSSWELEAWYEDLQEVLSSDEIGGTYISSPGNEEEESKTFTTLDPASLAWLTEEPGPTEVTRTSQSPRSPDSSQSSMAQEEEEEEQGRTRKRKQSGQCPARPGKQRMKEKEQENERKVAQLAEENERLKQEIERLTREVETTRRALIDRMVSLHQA
# [8] = biological target: X-box-binding protein 1 (Homo sapiens, UniProt P17861); assay type: functional, Cricetulus griseus;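 note: confirmatory dose-response counter-screen serving a CHOP assay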
# Chain of X-box-binding protein 1 (P17861 whole entry): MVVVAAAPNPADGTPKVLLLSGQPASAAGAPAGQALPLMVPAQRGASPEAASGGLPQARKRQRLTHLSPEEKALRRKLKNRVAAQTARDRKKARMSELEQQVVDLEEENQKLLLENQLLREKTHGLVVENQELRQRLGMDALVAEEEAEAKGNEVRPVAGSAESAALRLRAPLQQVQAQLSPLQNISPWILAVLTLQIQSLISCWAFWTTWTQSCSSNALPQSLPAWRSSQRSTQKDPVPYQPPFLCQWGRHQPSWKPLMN
# [9] = test system: Vero; test: cells; assay type: functional; settings: Chlorocebus sabaeus
# [10] = biological target: Dual specificity tyrosine-phosphorylation-regulated kinase 1A (Rattus norvegicus, UniProt Q63470); assay type: biochemical, Homo sapiens
# [11] = test system: HEK293; test: cells; settings: Homo sapiens
# [12] = test system: HEK293; test: cells; settings: Homo sapiens; remark: listed apart in the source
# [13] = inhibitors of intracellular T. cruzi replication, confirmation, NIH3T3 host cells, beta-gal luminescence (AID 2044); assay type: functional, cell-based;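 note: intracellular parasites grown in NIH/3T3 mouse fibroblasts as host cells; luminescent beta-galactosidase reporter signal from transgenic T. cruzi replicating inside host cells; inhibitors lower the luminescence signal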
# [14] = cytotoxicity toward NIH3T3 fibroblasts, dose response, counter-screen, cell-based, ATP luminescence, mouse fibroblasts (AID 2010); assay type: functional;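 note: cells exposed to compound for about 90 hours before reading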
# [15] = biological target: T2, Microphthalmia-associated transcription factor (Homo sapiens, UniProt O75030); test: TRPM1 promoter luciferase signal decrease, dose response, MITF inhibitor project, cell-based, SK-MEL-5, cherry-picked, set 3 (AID 493073); assay type: functional
# T2 sequence (O75030 whole entry): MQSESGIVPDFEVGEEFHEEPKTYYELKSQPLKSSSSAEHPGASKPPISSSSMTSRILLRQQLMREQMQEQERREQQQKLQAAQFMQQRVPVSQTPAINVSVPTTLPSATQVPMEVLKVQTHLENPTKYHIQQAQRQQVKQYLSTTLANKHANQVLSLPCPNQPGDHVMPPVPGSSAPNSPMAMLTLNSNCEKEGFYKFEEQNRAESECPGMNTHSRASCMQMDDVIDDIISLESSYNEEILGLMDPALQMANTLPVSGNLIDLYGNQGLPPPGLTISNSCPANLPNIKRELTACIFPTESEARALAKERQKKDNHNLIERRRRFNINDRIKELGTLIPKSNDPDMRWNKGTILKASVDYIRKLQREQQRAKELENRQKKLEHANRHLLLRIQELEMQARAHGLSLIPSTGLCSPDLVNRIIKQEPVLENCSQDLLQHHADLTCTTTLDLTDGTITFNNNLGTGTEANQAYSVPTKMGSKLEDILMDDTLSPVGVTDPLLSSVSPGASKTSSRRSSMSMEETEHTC
# [16] = test system: A-375; test: A375 melanoma cell viability reduction, dose response, counter-screen for MITF modulator project, cherry-pick samples, set 2 (AID 540335); assay type: functional, cell-based; settings: Homo sapiens
# [17] = cells
# [18] = test system: HeLa; test: HeLa cell cytotoxicity, dose response, cytotoxicity control for MITF activator project, CellTiter-Glo luminescence, cherry-pick samples (AID 540259); assay type: functional, cell-based; settings: Homo sapiens
# [19] = A Cell Based Secondary Assay To Explore Cytotoxicity of Compounds that Sensitize Mycobacterium Tuberculosis to Beta-Lactam Antibiotics.; assay type: functional
# [20] = biological target: T3, Insulin-degrading enzyme (Homo sapiens, UniProt P14735); test: activators of recombinant IDE enzyme, dose response, counter-screen for IDE activator project, biochemical, fluorescence polarization (AID 588681)
# T3 sequence (P14735 whole entry): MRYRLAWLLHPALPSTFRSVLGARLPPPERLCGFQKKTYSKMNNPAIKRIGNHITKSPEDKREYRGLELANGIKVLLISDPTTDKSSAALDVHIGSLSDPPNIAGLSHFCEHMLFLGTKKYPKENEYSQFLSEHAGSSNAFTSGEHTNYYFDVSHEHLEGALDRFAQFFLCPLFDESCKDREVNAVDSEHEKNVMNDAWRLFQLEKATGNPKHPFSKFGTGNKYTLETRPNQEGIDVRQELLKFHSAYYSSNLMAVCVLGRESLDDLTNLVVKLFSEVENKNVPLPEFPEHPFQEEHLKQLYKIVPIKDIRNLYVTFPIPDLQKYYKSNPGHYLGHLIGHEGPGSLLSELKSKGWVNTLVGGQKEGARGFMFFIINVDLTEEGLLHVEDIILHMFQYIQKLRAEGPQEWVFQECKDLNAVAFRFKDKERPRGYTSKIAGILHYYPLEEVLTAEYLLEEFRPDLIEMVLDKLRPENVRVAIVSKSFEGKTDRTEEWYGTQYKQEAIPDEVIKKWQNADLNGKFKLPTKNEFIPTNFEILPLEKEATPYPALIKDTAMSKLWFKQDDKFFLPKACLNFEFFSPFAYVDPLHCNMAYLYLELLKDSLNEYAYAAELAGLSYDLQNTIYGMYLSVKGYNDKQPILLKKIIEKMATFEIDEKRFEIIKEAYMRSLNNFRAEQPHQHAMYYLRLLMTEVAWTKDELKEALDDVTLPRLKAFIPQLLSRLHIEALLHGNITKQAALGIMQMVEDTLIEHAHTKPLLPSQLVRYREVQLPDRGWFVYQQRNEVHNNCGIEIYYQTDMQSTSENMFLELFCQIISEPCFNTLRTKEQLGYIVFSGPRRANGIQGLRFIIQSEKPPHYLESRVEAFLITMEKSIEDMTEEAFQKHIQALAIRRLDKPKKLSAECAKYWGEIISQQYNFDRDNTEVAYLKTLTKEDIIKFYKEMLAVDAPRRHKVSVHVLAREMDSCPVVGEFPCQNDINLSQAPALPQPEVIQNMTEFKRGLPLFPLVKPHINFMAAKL
# [21] = biological target: T3, Insulin-degrading enzyme; test: activators of endogenous IDE in HEK cells, dose response, cell-based, fluorescence polarization (AID 588439); assay type: functional
# [22] = test system: HEK293; test: HEK cell cytotoxicity by LDH release, dose response, cytotoxicity control for IDE activator project, fluorescence, HEK cells (AID 588440); assay type: functional, cell-based; settings: Homo sapiens;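 note: cytotoxicity by LDH release measuring loss of membrane integrity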
# [23] = test system: HEK293; test: optical interference in Abeta FP readout, dose response, artefact control for IDE activator project, biochemical, fluorescence polarization (AID 588442); assay type: functional, cell-based; settings: Homo sapiens
# [24] = biological target: Melanocortin receptor 4 (Homo sapiens, UniProt P32245); assay type: functional, cell-based;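 note: Cell-based assay with luminescence read-out, confirmatory dose-response testing for agonist activity of biased ligands at MC4R; human U2OS cells with tagged receptor and beta-arrestin; potency of agonists that increase receptor coupling to beta-arrestin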
# Chain of Melanocortin receptor 4 (P32245 whole entry): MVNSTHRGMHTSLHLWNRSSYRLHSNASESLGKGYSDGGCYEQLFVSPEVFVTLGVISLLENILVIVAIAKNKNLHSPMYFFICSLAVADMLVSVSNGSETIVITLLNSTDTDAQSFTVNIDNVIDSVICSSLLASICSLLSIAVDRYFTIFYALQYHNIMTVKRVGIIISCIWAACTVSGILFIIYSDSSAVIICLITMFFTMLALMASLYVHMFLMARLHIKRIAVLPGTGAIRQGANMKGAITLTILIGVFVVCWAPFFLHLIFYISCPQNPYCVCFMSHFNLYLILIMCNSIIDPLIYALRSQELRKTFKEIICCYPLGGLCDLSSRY
# [25] = biological target: Cytochrome P450 2C19 (Homo sapiens, UniProt P33261); test: Cytochrome panel assay with activity outcomes. Panel member name: p450-cyp2c19 Compounds with AC50 equal or less than 10 uM are considered active; assay type: functional
# Chain of Cytochrome P450 2C19 (P33261 whole entry): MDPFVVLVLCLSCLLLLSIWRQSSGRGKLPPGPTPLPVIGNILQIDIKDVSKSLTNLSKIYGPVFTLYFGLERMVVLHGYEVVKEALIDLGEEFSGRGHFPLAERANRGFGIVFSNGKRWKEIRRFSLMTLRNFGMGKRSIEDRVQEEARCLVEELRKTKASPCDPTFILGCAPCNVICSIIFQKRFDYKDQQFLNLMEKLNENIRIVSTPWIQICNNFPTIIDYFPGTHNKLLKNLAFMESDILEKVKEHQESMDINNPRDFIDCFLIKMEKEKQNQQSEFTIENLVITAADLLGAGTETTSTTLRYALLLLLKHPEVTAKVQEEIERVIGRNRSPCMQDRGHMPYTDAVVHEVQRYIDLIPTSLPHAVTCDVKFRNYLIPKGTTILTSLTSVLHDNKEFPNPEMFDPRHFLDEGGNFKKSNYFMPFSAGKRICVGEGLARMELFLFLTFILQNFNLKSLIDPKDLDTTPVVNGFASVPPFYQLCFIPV
# [26] = biological target: T4, Cytochrome P450 3A4 (Homo sapiens, UniProt P08684);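 note: CYP3A4 tested as one member of a cytochrome P450 panel screen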
# T4 sequence (P08684 whole entry): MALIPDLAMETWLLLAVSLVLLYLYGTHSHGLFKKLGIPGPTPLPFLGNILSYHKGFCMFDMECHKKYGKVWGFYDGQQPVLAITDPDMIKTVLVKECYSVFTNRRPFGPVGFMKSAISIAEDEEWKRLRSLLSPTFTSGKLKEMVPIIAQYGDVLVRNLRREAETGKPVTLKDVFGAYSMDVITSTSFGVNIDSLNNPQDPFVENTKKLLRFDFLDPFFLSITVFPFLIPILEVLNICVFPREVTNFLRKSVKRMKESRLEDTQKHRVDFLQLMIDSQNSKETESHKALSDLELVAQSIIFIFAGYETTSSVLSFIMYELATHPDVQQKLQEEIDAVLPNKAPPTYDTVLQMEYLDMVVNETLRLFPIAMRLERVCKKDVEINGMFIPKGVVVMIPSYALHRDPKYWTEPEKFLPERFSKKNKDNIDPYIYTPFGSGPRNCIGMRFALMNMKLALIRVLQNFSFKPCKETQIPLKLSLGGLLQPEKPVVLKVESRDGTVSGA
# [27] = biological target: Cytochrome P450 2C9 (Homo sapiens, UniProt P11712)
# Chain of Cytochrome P450 2C9 (P11712 whole entry): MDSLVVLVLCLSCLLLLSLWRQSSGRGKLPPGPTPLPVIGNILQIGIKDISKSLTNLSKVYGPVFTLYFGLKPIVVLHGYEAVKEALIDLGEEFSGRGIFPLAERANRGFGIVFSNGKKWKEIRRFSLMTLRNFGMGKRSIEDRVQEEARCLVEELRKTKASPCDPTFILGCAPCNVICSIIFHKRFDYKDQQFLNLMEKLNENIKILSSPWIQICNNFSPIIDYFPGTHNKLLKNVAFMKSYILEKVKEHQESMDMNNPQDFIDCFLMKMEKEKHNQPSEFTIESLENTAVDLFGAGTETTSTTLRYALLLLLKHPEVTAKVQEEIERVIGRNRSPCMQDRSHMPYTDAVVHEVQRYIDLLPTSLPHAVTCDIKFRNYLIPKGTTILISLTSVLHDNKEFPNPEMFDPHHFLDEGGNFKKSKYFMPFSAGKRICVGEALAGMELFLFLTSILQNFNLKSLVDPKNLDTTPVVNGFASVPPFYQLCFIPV
# [28] = biological target: Cytochrome P450 2D6 (Homo sapiens, UniProt P10635);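 note: CYP2D6 member of a cytochrome P450 panel assay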
# Chain of Cytochrome P450 2D6 (P10635 whole entry, the tested form may be a part): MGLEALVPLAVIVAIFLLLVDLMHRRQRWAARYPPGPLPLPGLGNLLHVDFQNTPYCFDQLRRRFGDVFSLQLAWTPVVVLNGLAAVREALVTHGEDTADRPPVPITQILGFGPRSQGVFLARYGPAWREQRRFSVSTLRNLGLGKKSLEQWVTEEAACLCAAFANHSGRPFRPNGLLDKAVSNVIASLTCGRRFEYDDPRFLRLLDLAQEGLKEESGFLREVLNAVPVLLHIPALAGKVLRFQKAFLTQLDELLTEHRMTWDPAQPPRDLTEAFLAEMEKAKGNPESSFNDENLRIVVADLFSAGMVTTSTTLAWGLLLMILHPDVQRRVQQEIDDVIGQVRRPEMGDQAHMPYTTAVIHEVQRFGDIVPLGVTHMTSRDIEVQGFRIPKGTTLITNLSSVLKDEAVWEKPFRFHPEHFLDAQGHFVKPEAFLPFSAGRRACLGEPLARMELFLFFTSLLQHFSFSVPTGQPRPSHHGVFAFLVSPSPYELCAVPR
# [29] = CAL PDZ domain peptide-binding inhibitors, dose response, biochemical, fluorescence polarization, untagged CAL PDZ, cherry-pick, set 2 (AID 602254); assay type: functional
# [30] = biological target: Dual specificity protein kinase CLK1 (Homo sapiens, UniProt P49759); test: CLK1 kinase inhibitors, off-target check, dose response, selectivity assay for Dyrk1A inhibitor project, biochemical, cherry-picked samples (AID 588811)
# Chain of Dual specificity protein kinase CLK1 (P49759 whole entry): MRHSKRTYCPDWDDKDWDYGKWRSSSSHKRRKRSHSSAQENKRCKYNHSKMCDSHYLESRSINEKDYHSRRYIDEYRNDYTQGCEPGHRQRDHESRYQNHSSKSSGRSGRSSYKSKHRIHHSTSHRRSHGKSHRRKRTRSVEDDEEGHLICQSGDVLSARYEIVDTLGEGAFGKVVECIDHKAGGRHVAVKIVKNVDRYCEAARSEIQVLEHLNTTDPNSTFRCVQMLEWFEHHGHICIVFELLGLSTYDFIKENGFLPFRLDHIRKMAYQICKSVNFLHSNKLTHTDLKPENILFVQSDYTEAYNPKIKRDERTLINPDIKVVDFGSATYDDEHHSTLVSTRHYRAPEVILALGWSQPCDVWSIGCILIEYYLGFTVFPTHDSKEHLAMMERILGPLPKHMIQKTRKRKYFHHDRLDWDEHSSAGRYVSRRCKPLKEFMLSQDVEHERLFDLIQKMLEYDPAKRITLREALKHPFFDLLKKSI
# [31] = biological target: T4, Cytochrome P450 3A4; remark: listed apart in the source
# [32] = biological target: T5, High affinity choline transporter 1 (Homo sapiens, UniProt Q9GZV3); test: CHT inhibitors, dose response, cell-based, 5-point CRC, membrane potential dye (AID 504840); assay type: functional
# T5 sequence (Q9GZV3 whole entry): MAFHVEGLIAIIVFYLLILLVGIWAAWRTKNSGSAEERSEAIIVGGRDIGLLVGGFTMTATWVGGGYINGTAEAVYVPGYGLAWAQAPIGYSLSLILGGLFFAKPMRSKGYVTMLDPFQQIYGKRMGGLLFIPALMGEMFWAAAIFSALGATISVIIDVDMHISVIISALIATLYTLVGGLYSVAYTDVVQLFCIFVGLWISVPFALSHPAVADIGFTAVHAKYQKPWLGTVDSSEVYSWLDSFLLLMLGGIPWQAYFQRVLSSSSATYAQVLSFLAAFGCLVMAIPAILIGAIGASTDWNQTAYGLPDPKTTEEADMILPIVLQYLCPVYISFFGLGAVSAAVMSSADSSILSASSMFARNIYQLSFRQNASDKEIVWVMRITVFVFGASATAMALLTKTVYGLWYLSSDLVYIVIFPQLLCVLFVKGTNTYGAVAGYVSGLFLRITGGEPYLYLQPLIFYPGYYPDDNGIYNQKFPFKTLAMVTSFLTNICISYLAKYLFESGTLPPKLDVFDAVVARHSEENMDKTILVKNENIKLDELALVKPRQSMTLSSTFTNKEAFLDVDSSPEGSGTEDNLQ
# [33] = biological target: T5, High affinity choline transporter 1; test: CHT inhibitors, dose response, cell-based, 10-point CRC, membrane potential dye (AID 588401); assay type: functional;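 note: membrane potential dye fluorescence of choline-evoked depolarization via CHT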
smiles,measurement,setting,value
COc1cc(/C=C2/SC(Nc3ccc(O)cc3)=NC2=O)ccc1O,IC50,[1],42.7 µM (inactive)
same,CC50,[2],61.1 µM (active)
same,IC50,[3],20 µM (active)
COc1ccc(/C=C(/C(=O)c2cccs2)N2C=CC=CC2=C(C#N)C#N)cc1,EC50,[4],> 120 µM (not active)
same,EC50,[5],> 120 µM (not active)
same,EC50,[6],> 120 µM (not active)
same,Absolute IC50 (CHOP),[7],10 µM
same,Absolute IC50 (XBP1),[8],10 µM
same,CC50,[9],> 25 µM (active)
same,AC50,[10],8.18 µM (active)
same,EC50,[11],> 59.6 µM (inactive)
same,EC50,[12],> 59.6 µM (inactive)
CN(Cc1ccccc1)C1=CC(=[N+]2CCCCC2)CC(C)(C)C1,EC50,[13],< 0.1 µM (active)
same,EC50,[14],> 60 µM (not active)
same,IC50,[1],> 80 µM (inactive)
same,AC50,[15],2.46 µM (active)
same,AC50,[16],84.3 µM (active)
same,EC50,[17],0.032 µM (active)
COc1ccc(C(=O)c2c[nH]c3ccccc23)cc1,AC50,[18],41.9 µM (active)
Cc1cc(C)c2sc(N(CCCN(C)C)C(=O)COc3ccc(Cl)cc3)nc2c1,CC50,[19],> 40 µM (active)
same,EC50,[20],> 54.7 µM (inactive)
same,EC50,[21],> 54.7 µM (inactive)
same,IC50,[22],26.2 µM (inactive)
same,EC50,[23],> 55.9 µM (inactive)
same,EC50,[24],> 89.2 µM (inactive)
CCCCNC(=O)c1cc2nc3c(c(C(F)(F)F)n2n1)CCc1ccccc1-3,AC50,[25]; read-out: AC50,15.8 µM (inconclusive)
same,AC50,[26],7.94 µM (inconclusive)
same,AC50,[27],0.398 µM (inconclusive)
same,AC50,[28],inconclusive
COc1cc(NC(=O)C2CCCN(S(=O)(=O)c3cccc4nsnc34)C2)cc(OC)c1 (stereo unspecified),AC50,[29],118 µM (active)
Cc1nc(NC(=O)c2ccccc2)sc1-c1csc(N)n1,AC50,[30],1.35 µM (active)
same,AC50,[10],1.26 µM (active)
COc1cccc(NC(=O)CSc2nc3c(c(-c4ccco4)c2C#N)CCCC3)c1,AC50,[25],inconclusive
same,AC50,[28],inconclusive
same,AC50,[31],inconclusive
CCn1c(SCCC(C)C)nnc1-c1c[nH]c2ccccc12,IC50,[32],0.955 µM (active)
same,IC50,[33],2.41 µM (active)
O=c1c2ccccc2oc2c1ccc1ccccc12,AC50,[18],32.3 µM (active)
COc1ccccc1-c1ccc2c(c1)C(C)(Cc1ccc(F)c(Cl)c1)C(=O)N2 (stereo unspecified),EC50,[11],> 59.6 µM (inactive)
same,EC50,[12],> 59.6 µM (inactive)
COc1ccc(-c2nccc(NCc3ccc(C)cc3)n2)cc1,AC50,[30],0.00697 µM (active)
